Experimental data as given in PMC8617627, “Novel DYRK1A Inhibitor Rescues Learning and Memory Deficits in a Mouse Model of Down Syndrome” (Pharmaceuticals, 2021).
Where two headings read alike, the source gives them in different places.

Columns and labels:
Test in all cases: Kinase profile (33P ATP filter binding)
Format in all cases: biochemical
Settings in all cases: read-out: Remaining protein kinase activity
[1] = target: T1, p38g MAPK (Homo sapiens, UniProt P53778)
T1 sequence (P53778 1-367): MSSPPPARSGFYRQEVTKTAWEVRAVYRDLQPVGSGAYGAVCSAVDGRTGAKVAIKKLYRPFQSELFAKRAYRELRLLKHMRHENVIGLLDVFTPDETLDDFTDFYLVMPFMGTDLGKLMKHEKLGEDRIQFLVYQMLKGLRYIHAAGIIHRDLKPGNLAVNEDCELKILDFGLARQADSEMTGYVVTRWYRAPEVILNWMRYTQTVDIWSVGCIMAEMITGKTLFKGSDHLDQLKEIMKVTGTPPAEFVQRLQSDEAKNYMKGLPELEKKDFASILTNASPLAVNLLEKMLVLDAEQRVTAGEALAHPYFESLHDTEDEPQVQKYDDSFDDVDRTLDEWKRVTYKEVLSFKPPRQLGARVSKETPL

[2] = target: TESK1 (Homo sapiens, UniProt Q15569)
[3] = target: RIPK2 (Homo sapiens, UniProt O43353)
[4] = target: SIK2 (Homo sapiens, UniProt Q9H0K1)
[5] = target: T2, TTK (Homo sapiens, UniProt P33981)
T2 sequence (P33981 1-857): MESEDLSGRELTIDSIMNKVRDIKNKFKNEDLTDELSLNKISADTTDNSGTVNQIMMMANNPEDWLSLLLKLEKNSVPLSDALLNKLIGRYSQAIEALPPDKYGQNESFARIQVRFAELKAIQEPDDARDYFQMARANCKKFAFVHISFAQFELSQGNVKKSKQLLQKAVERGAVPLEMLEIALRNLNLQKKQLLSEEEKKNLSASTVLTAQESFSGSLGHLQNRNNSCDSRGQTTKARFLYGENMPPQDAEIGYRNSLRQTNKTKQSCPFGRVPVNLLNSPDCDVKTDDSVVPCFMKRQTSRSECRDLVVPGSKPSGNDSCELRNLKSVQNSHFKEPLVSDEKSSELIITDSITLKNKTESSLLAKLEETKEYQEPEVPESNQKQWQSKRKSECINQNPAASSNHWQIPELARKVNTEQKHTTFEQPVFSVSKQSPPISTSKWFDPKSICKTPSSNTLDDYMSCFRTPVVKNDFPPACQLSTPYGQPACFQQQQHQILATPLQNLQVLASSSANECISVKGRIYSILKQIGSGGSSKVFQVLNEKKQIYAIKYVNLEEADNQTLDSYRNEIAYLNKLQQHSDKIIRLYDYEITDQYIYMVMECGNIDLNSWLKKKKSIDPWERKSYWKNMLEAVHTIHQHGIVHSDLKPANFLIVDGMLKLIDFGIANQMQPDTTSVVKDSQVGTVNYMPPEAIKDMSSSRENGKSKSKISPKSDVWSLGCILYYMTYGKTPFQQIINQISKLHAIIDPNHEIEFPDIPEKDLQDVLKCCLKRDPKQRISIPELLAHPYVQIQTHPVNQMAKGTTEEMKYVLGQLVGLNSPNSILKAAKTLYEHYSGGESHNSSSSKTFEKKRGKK

[6] = target: PLK1 (Homo sapiens, UniProt P53350)
[7] = target: IRR (Homo sapiens, UniProt P14616)
[8] = target: MNK1 (Homo sapiens, UniProt Q9BUB5)
[9] = target: T3, IKKb (Homo sapiens, UniProt O14920)
T3 sequence (O14920 1-756): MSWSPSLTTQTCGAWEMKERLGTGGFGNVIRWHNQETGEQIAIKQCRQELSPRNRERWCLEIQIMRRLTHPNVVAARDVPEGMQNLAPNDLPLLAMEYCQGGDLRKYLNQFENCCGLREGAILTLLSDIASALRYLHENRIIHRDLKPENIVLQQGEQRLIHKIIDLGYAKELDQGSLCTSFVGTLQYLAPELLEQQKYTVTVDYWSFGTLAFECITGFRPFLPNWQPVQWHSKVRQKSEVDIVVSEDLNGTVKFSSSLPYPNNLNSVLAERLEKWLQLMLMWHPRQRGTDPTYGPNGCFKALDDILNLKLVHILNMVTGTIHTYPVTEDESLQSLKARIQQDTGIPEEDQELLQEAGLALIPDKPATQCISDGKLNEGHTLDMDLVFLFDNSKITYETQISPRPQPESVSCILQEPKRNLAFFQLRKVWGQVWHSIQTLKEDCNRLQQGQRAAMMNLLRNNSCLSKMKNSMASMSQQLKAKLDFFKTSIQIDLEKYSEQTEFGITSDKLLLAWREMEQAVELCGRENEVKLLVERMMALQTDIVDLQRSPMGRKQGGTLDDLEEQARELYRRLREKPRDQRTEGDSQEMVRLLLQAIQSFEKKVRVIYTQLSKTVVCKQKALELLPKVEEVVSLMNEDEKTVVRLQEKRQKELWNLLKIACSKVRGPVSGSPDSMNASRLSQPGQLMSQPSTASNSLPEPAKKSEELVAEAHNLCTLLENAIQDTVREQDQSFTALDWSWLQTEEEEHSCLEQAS

TESK1, sequence (Q15569 whole entry): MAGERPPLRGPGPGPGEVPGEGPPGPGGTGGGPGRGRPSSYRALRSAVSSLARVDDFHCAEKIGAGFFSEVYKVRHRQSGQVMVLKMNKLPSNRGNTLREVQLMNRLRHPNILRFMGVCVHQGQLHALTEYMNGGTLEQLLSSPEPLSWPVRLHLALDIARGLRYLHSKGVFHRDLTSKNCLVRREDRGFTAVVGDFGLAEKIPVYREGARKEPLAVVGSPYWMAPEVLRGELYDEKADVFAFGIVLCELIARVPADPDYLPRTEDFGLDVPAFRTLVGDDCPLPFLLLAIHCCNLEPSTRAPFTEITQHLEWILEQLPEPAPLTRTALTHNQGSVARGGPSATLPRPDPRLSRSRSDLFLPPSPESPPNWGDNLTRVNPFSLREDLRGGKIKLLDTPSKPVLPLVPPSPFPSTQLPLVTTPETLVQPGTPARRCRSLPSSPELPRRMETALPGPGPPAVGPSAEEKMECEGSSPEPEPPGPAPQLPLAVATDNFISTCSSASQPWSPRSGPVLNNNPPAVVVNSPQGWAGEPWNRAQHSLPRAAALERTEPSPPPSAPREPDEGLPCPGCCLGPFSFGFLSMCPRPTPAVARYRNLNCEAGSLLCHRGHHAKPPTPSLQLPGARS
PLK1, sequence (P53350 whole entry): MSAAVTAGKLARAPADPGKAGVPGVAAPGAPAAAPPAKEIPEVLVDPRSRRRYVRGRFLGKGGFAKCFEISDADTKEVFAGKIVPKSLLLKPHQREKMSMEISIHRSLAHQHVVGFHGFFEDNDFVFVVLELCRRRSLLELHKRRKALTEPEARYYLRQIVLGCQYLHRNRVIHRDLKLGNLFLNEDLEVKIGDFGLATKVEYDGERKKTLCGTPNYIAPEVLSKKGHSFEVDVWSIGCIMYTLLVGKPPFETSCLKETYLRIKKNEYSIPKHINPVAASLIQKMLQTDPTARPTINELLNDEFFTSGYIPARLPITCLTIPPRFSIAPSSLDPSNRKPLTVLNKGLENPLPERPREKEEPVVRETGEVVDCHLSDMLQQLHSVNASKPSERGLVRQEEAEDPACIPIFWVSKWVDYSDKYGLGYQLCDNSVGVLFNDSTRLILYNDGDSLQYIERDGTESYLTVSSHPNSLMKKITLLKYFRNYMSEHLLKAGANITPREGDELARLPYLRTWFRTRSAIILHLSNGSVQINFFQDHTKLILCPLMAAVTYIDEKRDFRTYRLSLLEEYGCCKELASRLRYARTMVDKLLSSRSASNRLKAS
IRR, sequence (P14616 27-1297): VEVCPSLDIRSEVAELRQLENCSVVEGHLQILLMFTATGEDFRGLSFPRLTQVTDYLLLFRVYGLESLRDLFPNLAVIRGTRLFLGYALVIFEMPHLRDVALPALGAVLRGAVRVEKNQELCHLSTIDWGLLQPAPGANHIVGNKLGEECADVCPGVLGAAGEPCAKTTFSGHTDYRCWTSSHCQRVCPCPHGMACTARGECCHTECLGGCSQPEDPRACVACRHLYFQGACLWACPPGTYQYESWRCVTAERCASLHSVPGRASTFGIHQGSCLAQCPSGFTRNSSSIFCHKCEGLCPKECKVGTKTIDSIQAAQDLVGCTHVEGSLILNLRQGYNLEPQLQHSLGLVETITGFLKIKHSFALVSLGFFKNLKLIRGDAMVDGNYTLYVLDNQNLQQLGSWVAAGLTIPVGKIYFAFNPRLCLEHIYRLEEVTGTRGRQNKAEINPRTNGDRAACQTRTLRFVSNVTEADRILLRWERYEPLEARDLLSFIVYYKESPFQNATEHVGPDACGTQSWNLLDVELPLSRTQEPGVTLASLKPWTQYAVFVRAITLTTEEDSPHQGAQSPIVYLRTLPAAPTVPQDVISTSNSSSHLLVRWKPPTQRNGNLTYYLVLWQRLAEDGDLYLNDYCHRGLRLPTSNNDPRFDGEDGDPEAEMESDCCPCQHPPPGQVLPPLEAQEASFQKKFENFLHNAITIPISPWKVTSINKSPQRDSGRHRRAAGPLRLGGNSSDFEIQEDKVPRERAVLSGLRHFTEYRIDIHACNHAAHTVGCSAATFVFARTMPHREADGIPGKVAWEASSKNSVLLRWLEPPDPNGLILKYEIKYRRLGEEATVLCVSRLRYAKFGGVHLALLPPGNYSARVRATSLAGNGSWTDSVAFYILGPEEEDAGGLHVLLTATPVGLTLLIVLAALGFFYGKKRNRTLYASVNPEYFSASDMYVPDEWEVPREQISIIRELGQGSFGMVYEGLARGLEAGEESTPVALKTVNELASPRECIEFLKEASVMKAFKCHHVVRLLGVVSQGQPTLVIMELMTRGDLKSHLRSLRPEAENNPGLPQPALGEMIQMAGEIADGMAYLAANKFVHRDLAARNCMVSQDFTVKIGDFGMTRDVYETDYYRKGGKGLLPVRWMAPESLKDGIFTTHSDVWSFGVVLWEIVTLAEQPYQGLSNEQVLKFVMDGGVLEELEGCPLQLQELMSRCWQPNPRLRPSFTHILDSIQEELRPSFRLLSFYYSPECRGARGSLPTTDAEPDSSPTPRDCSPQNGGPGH
RIPK2, sequence (O43353 whole entry): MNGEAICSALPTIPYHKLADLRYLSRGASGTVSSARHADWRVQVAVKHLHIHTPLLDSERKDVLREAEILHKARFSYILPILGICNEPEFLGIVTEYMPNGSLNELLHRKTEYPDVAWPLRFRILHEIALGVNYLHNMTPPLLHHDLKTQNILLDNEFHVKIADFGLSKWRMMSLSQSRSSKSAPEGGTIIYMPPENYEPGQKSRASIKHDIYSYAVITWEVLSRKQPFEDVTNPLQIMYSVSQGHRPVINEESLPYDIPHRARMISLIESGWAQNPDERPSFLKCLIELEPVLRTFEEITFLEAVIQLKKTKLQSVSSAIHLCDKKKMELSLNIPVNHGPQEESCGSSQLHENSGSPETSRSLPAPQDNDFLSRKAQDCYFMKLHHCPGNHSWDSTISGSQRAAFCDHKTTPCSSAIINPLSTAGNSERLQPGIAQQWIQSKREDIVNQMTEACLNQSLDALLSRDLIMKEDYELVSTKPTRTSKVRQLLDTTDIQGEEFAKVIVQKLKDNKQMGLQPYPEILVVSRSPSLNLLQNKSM
SIK2, sequence (Q9H0K1 whole entry): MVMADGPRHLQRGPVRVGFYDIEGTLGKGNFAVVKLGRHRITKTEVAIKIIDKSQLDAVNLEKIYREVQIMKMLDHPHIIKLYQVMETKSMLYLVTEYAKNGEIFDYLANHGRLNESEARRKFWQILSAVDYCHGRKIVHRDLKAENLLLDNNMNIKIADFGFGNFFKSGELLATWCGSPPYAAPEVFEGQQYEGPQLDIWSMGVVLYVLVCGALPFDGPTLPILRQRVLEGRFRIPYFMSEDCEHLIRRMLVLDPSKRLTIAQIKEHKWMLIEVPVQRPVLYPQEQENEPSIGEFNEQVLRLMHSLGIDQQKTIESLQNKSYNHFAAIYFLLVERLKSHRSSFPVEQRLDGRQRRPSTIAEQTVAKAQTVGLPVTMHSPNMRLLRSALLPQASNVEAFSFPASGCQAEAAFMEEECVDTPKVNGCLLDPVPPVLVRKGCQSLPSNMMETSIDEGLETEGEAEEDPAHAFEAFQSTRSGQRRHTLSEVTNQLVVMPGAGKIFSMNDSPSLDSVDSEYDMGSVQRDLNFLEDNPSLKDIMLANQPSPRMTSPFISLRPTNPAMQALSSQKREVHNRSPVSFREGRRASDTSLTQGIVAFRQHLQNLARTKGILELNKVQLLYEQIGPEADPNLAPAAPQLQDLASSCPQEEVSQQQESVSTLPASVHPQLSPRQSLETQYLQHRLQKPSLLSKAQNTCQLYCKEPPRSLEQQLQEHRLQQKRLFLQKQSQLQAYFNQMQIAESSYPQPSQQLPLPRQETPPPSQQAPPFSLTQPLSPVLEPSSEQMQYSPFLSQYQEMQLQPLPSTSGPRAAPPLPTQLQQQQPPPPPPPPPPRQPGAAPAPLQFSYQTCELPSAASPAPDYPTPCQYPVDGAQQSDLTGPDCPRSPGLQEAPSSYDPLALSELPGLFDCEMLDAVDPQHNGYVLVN
MNK1, sequence (Q9BUB5 whole entry): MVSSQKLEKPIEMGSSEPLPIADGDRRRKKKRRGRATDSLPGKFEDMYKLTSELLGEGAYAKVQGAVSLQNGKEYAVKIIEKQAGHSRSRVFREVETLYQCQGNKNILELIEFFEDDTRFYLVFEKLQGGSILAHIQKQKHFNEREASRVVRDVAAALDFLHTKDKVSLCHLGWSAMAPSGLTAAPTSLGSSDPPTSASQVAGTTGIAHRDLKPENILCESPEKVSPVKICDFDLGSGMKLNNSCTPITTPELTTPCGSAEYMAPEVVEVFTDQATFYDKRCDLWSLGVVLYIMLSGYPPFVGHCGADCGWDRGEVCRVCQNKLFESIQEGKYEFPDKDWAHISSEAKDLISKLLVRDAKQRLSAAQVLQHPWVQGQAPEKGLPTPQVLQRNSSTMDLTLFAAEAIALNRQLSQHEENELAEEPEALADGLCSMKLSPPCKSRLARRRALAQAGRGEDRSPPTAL

COc1ccc2sc(-c3cncc(N)c3)nc2c1 [compound 1, 5-(5-Methoxybenzo[d]thiazol-2-yl)pyridin-3-amine]
remaining activity at 1 µM ([1]; p38g MAPK, 1 μM): 110% | remaining activity at 100 µM ([1]; p38g MAPK, 100 μM): 37% | remaining activity at 1 µM ([2]; TESK1, 1 μM): 110% | remaining activity at 100 µM ([2]; TESK1, 100 μM): 28% | remaining activity at 1 µM ([3]; RIPK2, 1 μM): 104% | remaining activity at 100 µM ([3]; RIPK2, 100 μM): 20% | remaining activity at 1 µM ([4]; SIK2, 1 μM): 102% | remaining activity at 100 µM ([4]; SIK2, 100 μM): 10% | remaining activity at 1 µM ([5]; TTK, 1 μM): 86% | remaining activity at 100 µM ([5]; TTK, 100 μM): 47% | remaining activity at 1 µM ([6]; PLK1, 1 μM): 99% | remaining activity at 100 µM ([6]; PLK1, 100 μM): 73% | remaining activity at 1 µM ([7]; IRR, 1 μM): 113% | remaining activity at 100 µM ([7]; IRR, 100 μM): 77% | remaining activity at 1 µM ([8]; MNK1, 1 μM): 97% | remaining activity at 100 µM ([8]; MNK1, 100 μM): 20% | remaining activity at 1 µM ([9]; IKKb, 1 μM): 105% | remaining activity at 100 µM ([9]; IKKb, 100 μM): 38%

COc1ccc2sc(-c3cncc(NC(C)=O)c3)nc2c1 [PST-001, N-(5-(5-Methoxybenzo[d]thiazol-2-yl)pyridin-3-yl)acetamide]
remaining activity at 1 µM [1]: 125% | remaining activity at 100 µM [1]: 105% | remaining activity at 1 µM [2]: 105% | remaining activity at 100 µM [2]: 85% | remaining activity at 1 µM [3]: 109% | remaining activity at 1 µM [4]: 112% | remaining activity at 100 µM [4]: 65% | remaining activity at 1 µM [5]: 88% | remaining activity at 100 µM [5]: 69% | remaining activity at 1 µM [6]: 112% | remaining activity at 100 µM [6]: 115% | remaining activity at 1 µM [7]: 117% | remaining activity at 100 µM [7]: 120% | remaining activity at 1 µM [8]: 111% | remaining activity at 100 µM [8]: 94% | remaining activity at 1 µM [9]: 111% | remaining activity at 100 µM [9]: 108%
